According to patent US20080145453A1, “Novel Dihydropyrimidine Derivatives And Their Use As Anti-Cancer Agents” (priority 2005, published 2008):

How the values were obtained:
[1] = target: T1, human Eg5 (monomeric construct Eg52-386) (Homo sapiens, UniProt P52732); experiment: In vitro inhibition of the ATPase activity of kinesin Eg5 (pyruvate kinase/lactate dehydrogenase coupled assay); type: biochemical; details: for % inhibition: in vitro ATPase activity of Eg5, inhibitor concentration not given; for IC50: in vitro inhibition of ATPase activity of Eg5
T1 construct: the basal ATPase activity was measured using 1-4 μM of Eg5 (2-386) for the above test; made in house
T1 sequence (P52732 2-386): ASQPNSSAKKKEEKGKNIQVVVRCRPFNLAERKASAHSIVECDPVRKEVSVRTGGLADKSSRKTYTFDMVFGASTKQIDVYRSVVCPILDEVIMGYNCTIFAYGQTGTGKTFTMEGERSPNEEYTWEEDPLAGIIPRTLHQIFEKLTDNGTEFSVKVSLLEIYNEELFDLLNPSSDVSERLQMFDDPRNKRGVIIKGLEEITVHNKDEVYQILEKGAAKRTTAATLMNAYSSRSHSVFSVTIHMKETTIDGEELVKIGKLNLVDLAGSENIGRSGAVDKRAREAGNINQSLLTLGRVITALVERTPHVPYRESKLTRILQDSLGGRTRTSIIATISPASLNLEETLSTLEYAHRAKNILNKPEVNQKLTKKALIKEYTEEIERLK
Method: All the assays were carried out at ambient temperature using the TECAN 96-well Sunrise photometer with a final volume of 200-250 μl per well. The ATPase contents were measured using the pyruvate kinase/lactate dehydrogenase protocol in an A25A buffer (25 mM potassium ACES, pH 6.9, 2 mM magnesium acetate, 2 mM potassium EGTA, 0.1 mM potassium EDTA, 1 mM mercaptoethanol) . In the […] of MT (microtubules) stabilized with paclitaxel, 300 nM of Eg52-386 were used for the test and, in the absence of MT, the basal ATPase activity was measured using 1-4 μM of Eg5 (2-386) for the above test or the malachite green test. For optimal solubility of the inhibitor, the assays were carried out in the presence of up to 2.2% of DMSO. […] The data were analyzed using a Kaleidagraph 3.0 (Synergy Software) and Microsoft Excel, so as to obtain the IC50 values.
The IC50 values for the in vitro inhibition of the ATPase activity of the kinesin motor proteins are determined according to the method described in S. DeBonis et al. (2003) Biochemistry 42, 338-349. Monastrol was used as a positive control. When necessary, the concentrations of inhibitor were adjusted according to the initial IC50. Each concentration of inhibitor was measured one to three times and averaged data are indicated with the margins of error±the standard deviation.

kinesin Eg5 = target: T2, kinesin Eg5 (Homo sapiens, UniProt P52732); details: prior-art values given in the background; read-out: antimitotic effect IC50; cited from earlier work
T2 sequence (P52732 1-1056): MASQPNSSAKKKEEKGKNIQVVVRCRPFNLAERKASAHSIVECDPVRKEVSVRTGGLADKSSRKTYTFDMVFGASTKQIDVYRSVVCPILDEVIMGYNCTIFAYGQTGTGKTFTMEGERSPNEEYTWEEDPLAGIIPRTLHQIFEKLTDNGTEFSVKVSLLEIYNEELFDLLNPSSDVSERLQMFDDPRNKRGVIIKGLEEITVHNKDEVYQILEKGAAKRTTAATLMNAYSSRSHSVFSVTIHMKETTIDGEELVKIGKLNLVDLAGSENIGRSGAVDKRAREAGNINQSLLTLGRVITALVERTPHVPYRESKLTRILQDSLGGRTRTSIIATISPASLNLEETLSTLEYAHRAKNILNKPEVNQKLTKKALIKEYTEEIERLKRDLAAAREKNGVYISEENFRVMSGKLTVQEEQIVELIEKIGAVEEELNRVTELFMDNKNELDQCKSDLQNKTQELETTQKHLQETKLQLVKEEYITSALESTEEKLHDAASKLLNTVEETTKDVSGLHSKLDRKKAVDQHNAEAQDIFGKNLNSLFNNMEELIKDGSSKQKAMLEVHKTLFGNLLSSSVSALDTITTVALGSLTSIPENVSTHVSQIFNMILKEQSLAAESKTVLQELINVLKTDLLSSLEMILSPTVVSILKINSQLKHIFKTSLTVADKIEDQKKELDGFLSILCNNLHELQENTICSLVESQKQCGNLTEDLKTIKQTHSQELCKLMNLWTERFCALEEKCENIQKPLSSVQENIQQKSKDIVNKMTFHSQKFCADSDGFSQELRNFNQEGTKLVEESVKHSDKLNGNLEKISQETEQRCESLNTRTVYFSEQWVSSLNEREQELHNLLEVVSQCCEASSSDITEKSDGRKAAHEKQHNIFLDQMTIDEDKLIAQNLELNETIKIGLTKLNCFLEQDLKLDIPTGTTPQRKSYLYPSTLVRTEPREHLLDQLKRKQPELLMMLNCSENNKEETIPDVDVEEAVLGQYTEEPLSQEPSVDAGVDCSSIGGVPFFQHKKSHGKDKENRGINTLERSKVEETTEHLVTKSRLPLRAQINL

SMILES | % inhibition [1] | IC50 [1] | IC50 (kinesin Eg5)
CCOC(=O)C1=C(C)NC(=S)NC1c1ccccc1 (stereo not drawn) [Compound 1] | 80% | 9.5 µM | 
CCOC(=O)C1=C(C)NC(=S)NC1c1cccc(O)c1 (stereo not drawn) [Compound 2] | ≧90%^ | 16 µM | 
CCOC(=O)C1=C(C)NC(=S)NC1c1ccc(O)cc1 (stereo not drawn) [Compound 3] | 20% | 212 µM | 
COc1ccc(C2NC(=S)NC(C)=C2C(=O)OCc2ccccc2)cc1 (stereo not drawn) [Compound 4] | 40% | 6.6 µM | 
CC1=C(C(=O)OCc2ccccc2)C(c2ccccc2)NC(=S)N1 (stereo not drawn) [Compound 5] | 40% | 11.8 µM | 
CC1=C(C(=O)OCc2ccccc2)C(c2cccc(O)c2)NC(=S)N1 (stereo not drawn) [Compound 6] | ≧90%^ | 10.3 µM | 
CCOC(=O)C1=C(C)N(C)C(=S)NC1c1ccccc1 (stereo not drawn) [Compound 7] | 60% | 21 µM | 
CCOC(=O)C1=C(C)N(C)C(=S)NC1c1cccc(O)c1 (stereo not drawn) [Compound 8] | ≧90%^ | 6.3 µM | 
CC(=O)C1=C(C)NC(=S)NC1c1ccccc1 (stereo not drawn) [Compound 9] | ≧90%^ | 24 µM | 
CC(=O)C1=C(C)NC(=S)NC1c1ccc(O)cc1 (stereo not drawn) [Compound 10] | 80% | 56 µM | 
CC1=C(C(=O)c2ccccc2)C(c2ccc(O)cc2)NC(=S)N1 (stereo not drawn) [Compound 11] | ≧90%^ | 14.7 µM | 
CC(=O)C1=C(C)N(C)C(=S)NC1c1ccccc1 (stereo not drawn) [Compound 12] | 40% | 80 µM | 
CC1=C(C(=O)c2ccccc2)C(c2ccccc2)NC(=S)N1C (stereo not drawn) [Compound 13] | ≧90%^ | 1.1 µM | 
CC1=C(C(=O)OCc2ccccc2)C(c2cccc(O)c2)NC(=S)N1C (stereo not drawn) [Compound 14] | 48% | 9.8 µM | 
CC(=O)C1=C(C)NC(=S)NC1c1cccc(O)c1 (stereo not drawn) [Compound 15] | ≧90%^ | 0.51 µM | 
CC(=O)C1=C(C)N(C)C(=S)NC1c1cccc(O)c1 (stereo not drawn) [Compound 16] | 40% | 133 µM | 
CC1=C(C(=O)c2ccccc2)C(c2cccc(O)c2)NC(=S)N1 (stereo not drawn) [Compound 17] | ≧90%^ | 0.25 µM | 

SMILES | % inhibition [1] | IC50 [1] | IC50 (kinesin Eg5)
CC1=C(C(=O)c2ccccc2)C(c2cccc(O)c2)NC(=S)N1C (stereo not drawn) [Compound 18] | ≧90%^ |  | 
CC1=C(C(=O)c2ccccc2)C(c2ccc(O)cc2)NC(=S)N1C (stereo not drawn) [Compound 19] | 87% | 24 µM | 
CCOC(=O)C1=C(C)NC(=S)NC1c1cccc(Cl)c1 (stereo not drawn) [Compound 20] | 60% | 10 µM | 
CCOC(=O)C1=C(C)NC(=S)NC1c1cccc(OC)c1 (stereo not drawn) [Compound 21] | 20% | 57 µM | 
CCOC(=O)C1=C(C)NC(=S)NC1c1ccccc1F (stereo not drawn) [Compound 22] | 60% | 20 µM | 
CCOC(=O)C1=C(C)NC(=S)NC1c1ccccc1Cl (stereo not drawn) [Compound 24] | 60% | 32 µM | 
CCOC(=O)C1=C(C)NC(=S)NC1c1cccc(F)c1 (stereo not drawn) [Compound 25] | 60% | 14 µM | 
CC1=C(C(=O)c2ccccc2)C(c2ccccc2)NC(=O)N1C (stereo not drawn) [Compound 26] | 84% | 5 µM | 
CC1=C(C(=O)c2ccccc2)C(c2cccc(O)c2)NC(=O)N1C (stereo not drawn) [Compound 27] | 85% | 0.8 µM | 
C=CCN1C(=S)NC(c2cccc(O)c2)C(C(=O)c2ccccc2)=C1C(F)(F)F (stereo not drawn) [Compound 28] | 70% | 17 µM | 
CCOC(=O)C1=C(C(C)C)NC(=S)NC1c1cccc(O)c1 (stereo not drawn) [Compound 29] | 80% | 8.5 µM | 
CCOC(=O)C1=C(CC)N(C)C(=S)NC1c1cccc(O)c1 (stereo not drawn) [Compound 30] | ≧90%^ | 10 µM | 
CC1=C(C(=O)c2cccc(F)c2)C(c2cccc(O)c2)NC(=S)N1 (stereo not drawn) [Compound 31] | 87% | 0.82 µM | 
CC1=C(C(=O)c2cccc(Cl)c2)C(c2cccc(O)c2)NC(=S)N1 (stereo not drawn) [Compound 32] | ≧90%^ | 0.5 µM | 
CC1=C(C(=O)c2cccc(I)c2)C(c2cccc(O)c2)NC(=S)N1 (stereo not drawn) [Compound 33] | ≧90%^ | 0.5 µM | 
COc1cccc(C(=O)C2=C(C)NC(=S)NC2c2cccc(O)c2)c1 (stereo not drawn) [Compound 34] | ≧90%^ | 1.1 µM | 
CCOC(=O)C1=C(C)NC(=S)NC1c1cccc(O)c1 (stereo not drawn) [Monastrol] |  |  | > 14 µM
